According to EPA's ToxRefDB 2:

Assays:
dog [1] = settings: Chronic toxicity, beagle, Oral, Feed, dose end: 52 week, group: systemic
rat [2] = settings: Combined chronic toxicity/carcinogenicity, sprague dawley, Oral, Feed, dose end: 2 year, group: systemic
rat [3] = settings: Multigenerational reproductive toxicity study, CRL:CD BR/VAF/PLUS, Oral, Feed, dose end: 2 generation
dog [4] = settings: Subchronic oral toxicity in nonrodent, beagle, Capsule, dose end: 90 day, group: systemic, systemic / clinical chemistry / alkaline phosphatase (alp/alk) / alkaline phosphatase (alp/alk) + systemic / pathology microscopic / liver…
rat [5] = settings: Subchronic oral toxicity in rodents, sprague dawley, Feed, dose end: 13 week
mouse [6] = settings: Carcinogenicity, cd1, Oral, Feed, dose end: 99 week, group: systemic
rabbit = settings: Prenatal developmental toxicity study, new zealand white, Oral, Gavage/Intubation, dose end: 18 GD
rat [7] = settings: Subchronic oral toxicity in rodents, other, Feed, dose end: 90 day, group: systemic, systemic / in life observation / food consumption / food consumption
rat [8] = settings: Subchronic oral toxicity in rodents, sprague dawley, Gavage/Intubation, dose end: 90 day, group: systemic
rat [9] = settings: Subchronic oral toxicity in rodents, sprague dawley, Water, dose end: 90 day, group: systemic
mouse [10] = settings: Subchronic oral toxicity in rodents, cd1, Feed, dose end: 13 week, group: systemic, systemic / in life observation / body weight / body weight gain
dog [11] = settings: Chronic toxicity, beagle, Oral, Feed, dose end: 52 week, group: systemic; remark: listed apart in the source
rat [12] = settings: Combined chronic toxicity/carcinogenicity, other, Oral, Feed, dose end: 24 month, group: systemic
mouse [13] = settings: Carcinogenicity, cd1, Oral, Feed, dose end: 18 month, group: systemic
rat [14] = settings: Subchronic oral toxicity in rodents, sprague dawley, Feed, dose end: 3 month, group: systemic, systemic / organ weight / liver / relative to body weight + systemic / pathology microscopic / liver / hypertrophy + systemic / pathology …
dog [15] = settings: Subchronic oral toxicity in nonrodent, beagle, Feed, dose end: 13 week, group: systemic, systemic / in life observation / body weight / body weight gain
[16] = systemic / hematology / heinz body / heinz body + systemic / organ weight / prostate / absolute
[17] = systemic / hematology / heinz body / heinz body + systemic / organ weight / prostate / absolute + systemic / clinical chemistry / alanine …
[18] = systemic / pathology microscopic / adrenal gland / vacuolization + systemic / organ weight / thyroid gland / relative to body weight + …
[19] = group: offspring, developmental / offspring survival late / lactation index / lactation index + developmental / offspring survival late / [other] / [other] + …
[20] = group: parental, systemic / in life observation / body weight / body weight gain + systemic / in life observation / food consumption / food consumption
[21] = group: parental, systemic / in life observation / body weight / body weight gain + systemic / in life observation / food consumption / food consumption + …
[22] = group: maternal, reproductive / reproductive performance / estrous cycle / corpora lutea
[23] = group: systemic, systemic / in life observation / body weight / body weight + systemic / in life observation / food consumption / food consumption + systemic…
[24] = group: systemic, systemic / organ weight / liver / nos
[25] = systemic / pathology microscopic / testes / hypertrophy + systemic / pathology microscopic / testes / vacuolization + systemic / pathology …
[26] = group: developmental, developmental / developmental malformation / bone / delayed ossification + developmental / developmental malformation / bone / full …
[27] = group: maternal, systemic / in life observation / body weight / body weight gain
[28] = group: maternal, systemic / in life observation / body weight / body weight gain + reproductive / reproductive performance / aborted / aborted + reproductive…
[29] = systemic / clinical chemistry / globulins / globulins + systemic / clinical chemistry / protein / protein + systemic / hematology / …
[30] = systemic / in life observation / body weight / body weight + systemic / in life observation / food consumption / food consumption
[31] = systemic / clinical chemistry / cholesterol / cholesterol + systemic / in life observation / mortality / mortality + systemic / pathology …
[32] = systemic / hematology / anemia / anemia - hemolytic + systemic / hematology / methemoglobin / methemoglobin + systemic / hematology / …
[33] = systemic / clinical chemistry / gamma glutamyl transferase (ggt) / gamma glutamyl transferase (ggt) + systemic / clinical chemistry / …
[34] = systemic / hematology / lymphocyte / lymphocyte + systemic / organ weight / kidney / nos + systemic / organ weight / testes / nos + systemic…
[35] = systemic / organ weight / testes / nos

CC(C)NC(=O)N1CC(=O)N(c2cc(Cl)cc(Cl)c2)C1=O [Iprodione]
LEL (dog [1]; [16]): 24.9 mg/kg/day | LOAEL (dog [1]; [16]): 24.9 mg/kg/day | NEL (dog [1]; [17]): 4.12 mg/kg/day | NOAEL (dog [1]; [17]): 4.12 mg/kg/day | LEL (rat [2]; [18]): 6.1 mg/kg/day | NEL (rat [2]; [18]): < 6.1 mg/kg/day | LOAEL (rat [2]; systemic / pathology microscopic / liver / hypertrophy + systemic / organ weight / liver / absolute + systemic / organ weight / liver / …): 12.4 mg/kg/day | NOAEL (rat [2]; systemic / pathology microscopic / liver / hypertrophy + systemic / pathology microscopic / adrenal gland / rarefaction + systemic / …): 6.1 mg/kg/day | LEL (rat [3]; [19]): 158 mg/kg/day | LOAEL (rat [3]; [19]): 158 mg/kg/day | NEL (rat [3]; [19]): 54.7 mg/kg/day | NOAEL (rat [3]; [19]): 54.7 mg/kg/day | LEL (rat [3]; [20]): 54.7 mg/kg/day | LOAEL (rat [3]; [20]): 54.7 mg/kg/day | NEL (rat [3]; [21]): 16.5 mg/kg/day | NOAEL (rat [3]; [21]): 16.5 mg/kg/day | LEL (dog [4]): 180 mg/kg/day | LOAEL (dog [4]): 180 mg/kg/day | NEL (dog [4]): 60 mg/kg/day | NOAEL (dog [4]): 60 mg/kg/day | LEL (rat [5]; [22]): 184 mg/kg/day | LOAEL (rat [5]; [22]): 184 mg/kg/day | NEL (rat [5]; [22]): 89 mg/kg/day | NOAEL (rat [5]; [22]): 89 mg/kg/day | LOAEL (rat [5]; [23]): 151 mg/kg/day | NOAEL (rat [5]; [23]): 78 mg/kg/day | LEL (rat [5]; [24]): 89 mg/kg/day | NEL (rat [5]; [24]): < 89 mg/kg/day | LOAEL (mouse [6]; systemic / pathology microscopic / testes / hypertrophy + systemic / pathology microscopic / testes / vacuolization): 115 mg/kg/day | LEL (mouse [6]; [25]): 115 mg/kg/day | NEL (mouse [6]; [25]): 23 mg/kg/day | NOAEL (mouse [6]; [25]): 23 mg/kg/day | LEL (rabbit; [26]): 200 mg/kg/day | LOAEL (rabbit; [26]): 200 mg/kg/day | NEL (rabbit; [26]): 60 mg/kg/day | NOAEL (rabbit; [26]): 60 mg/kg/day | LEL (rabbit; [27]): 60 mg/kg/day | LOAEL (rabbit; [27]): 60 mg/kg/day | NEL (rabbit; [28]): 20 mg/kg/day | NOAEL (rabbit; [28]): 20 mg/kg/day | LEL (rat [7]): 25 mg/kg/day | LOAEL (rat [7]): > 50 mg/kg/day | NEL (rat [7]): 7.5 mg/kg/day | NOAEL (rat [7]): ≥ 50 mg/kg/day

O=C(O)C(F)(F)C(F)(F)C(F)(F)C(F)(F)C(F)(F)F [PFHxA]
LOAEL (rat [8]; [29]): > 200 mg/kg/day | NOAEL (rat [8]; [29]): ≥ 200 mg/kg/day | LEL (rat [8]; [30]): 10 mg/kg/day | NEL (rat [8]; [30]): < 10 mg/kg/day

CC(Cl)C(Cl)Cl (stereo not given) [1,1,2-Trichloropropane]
LOAEL (rat [9]; [31]): > 50 mg/kg/day | NEL (rat [9]; [31]): 0.5 mg/kg/day | NOAEL (rat [9]; [31]): ≥ 50 mg/kg/day | LEL (rat [9]; systemic / in life observation / mortality / mortality): 5 mg/kg/day

COc1cccc(C(=O)NN(C(=O)c2cc(C)cc(C)c2)C(C)(C)C)c1C [Methoxyfenozide]
LEL (mouse [10]): 1150 mg/kg/day | LOAEL (mouse [10]): 1150 mg/kg/day | NEL (mouse [10]): 428 mg/kg/day | NOAEL (mouse [10]): 428 mg/kg/day | LOAEL (dog [11]; [32]): 1150 mg/kg/day | NEL (dog [11]; [32]): 9.8 mg/kg/day | NOAEL (dog [11]; [32]): 106 mg/kg/day | LEL (dog [11]; systemic / hematology / platelet / platelet + systemic / hematology / erythrocyte (rbc) count differential / erythrocyte (rbc)): 106 mg/kg/day | LEL (rat [12]; [33]): 411 mg/kg/day | NEL (rat [12]; [33]): 10.2 mg/kg/day | LOAEL (rat [12]; systemic / in life observation / mortality / mortality + systemic / organ weight / liver / absolute + systemic / organ weight / liver / …): 1040 mg/kg/day | LOAEL (mouse [13]; [34]): > 1020 mg/kg/day | NOAEL (mouse [13]; [34]): ≥ 1020 mg/kg/day | LEL (mouse [13]; [35]): 10 mg/kg/day | NEL (mouse [13]; [35]): < 10 mg/kg/day | LEL (rat [14]): 353 mg/kg/day | LOAEL (rat [14]): 353 mg/kg/day | NEL (rat [14]): 69.3 mg/kg/day | NOAEL (rat [14]): 69.3 mg/kg/day | LEL (dog [15]): 0.6 mg/kg/day | LOAEL (dog [15]): > 198 mg/kg/day | NEL (dog [15]): < 0.6 mg/kg/day | NOAEL (dog [15]): ≥ 198 mg/kg/day
